From patent US6656694B2, “Method for identifying a ligand for a biological substrate” (Theravance, Inc., priority 2001, dated 2003)

Assays:
[1] = target: T1, human cloned muscarinic receptor (M2), second binding site (Homo sapiens, UniProt P08172); experiment: Screening of candidate compounds: effect on 3H-NMS binding in the presence of multibinding Compound A; conditions: candidate 500 nM; Compound A 200 nM; 3H-NMS 10 nM; PBS pH 7.4; CHO membranes; 1 hour at 37° C.; B and C relative to each other
T1 sequence (P08172 1-466): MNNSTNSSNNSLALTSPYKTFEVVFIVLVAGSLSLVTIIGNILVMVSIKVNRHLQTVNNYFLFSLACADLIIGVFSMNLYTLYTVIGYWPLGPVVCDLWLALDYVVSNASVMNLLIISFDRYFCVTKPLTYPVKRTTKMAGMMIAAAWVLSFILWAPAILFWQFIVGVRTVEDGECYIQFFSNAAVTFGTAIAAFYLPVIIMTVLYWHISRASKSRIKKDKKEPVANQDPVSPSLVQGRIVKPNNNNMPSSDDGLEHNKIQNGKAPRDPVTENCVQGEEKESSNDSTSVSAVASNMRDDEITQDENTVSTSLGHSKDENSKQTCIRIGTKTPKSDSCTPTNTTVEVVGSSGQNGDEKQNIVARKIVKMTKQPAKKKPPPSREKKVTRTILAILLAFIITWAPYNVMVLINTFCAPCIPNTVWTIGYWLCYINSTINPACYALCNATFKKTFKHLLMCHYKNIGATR
Description: Into each well in a 96 well place, the following are added:
a) Compound A, such that the final concentration in the well is 200 nM (10 times the Kd of Compound A) in phosphate buffered saline at pH 7.4;
b) tritiated N-methyl scopalamine (^3H-NMS), such that the final concentration in each well is 10 nM (0.5 times the Kd of ^3H-NMS);
c) a candidate compound at a final concentration of 500 nM, the candidate compound being selected from amines including Compound B and Compound C (which are commercially available); [drawing 5]
(§1) d) membrane containing human cloned muscarinic receptor (prepared by expressing M2 coding plasmid in CHO cells using well-known procedures and reagents).
(§2) The 96 well plate is then incubated for 1 hour at 37° C. After incubation, the membranes are filtered to separate bound from unbound ^3H-NMS. Scintillant is then added, and the plate is placed in a counter to measure the radioactivity in each well.
The amount of radioactivity determined for each well is then compared to a pre-determined amount of radioactivity measured using the above procedure in the absence of a candidate compound. […]

[2] = target: T2, human cloned muscarinic receptor (M2) (Homo sapiens, UniProt P08172); experiment: Binding of Compound D to the receptor measured using 3H-NMS; conditions: stated more potent than Compound A
T2 sequence (P08172 1-466): T1 sequence (P08172 1-466)
Description: as §1, §2
The binding of Compound D to the receptor is then measured using ^3H-NMS.

Compound | binding to the receptor (radioactivity of bound 3H-NMS observed) [1] | Kd [2]
O=C(Nc1ccc2ccccc2c1)C1CC(O)CN1 (stereo not drawn) [Compound B] | bind weakly | 
CNC1CCN(Cc2c(OC)cccc2OC)CC1 [Compound C] | bind strongly | 
COc1cccc(OC)c1CN1CCC(N(C)CCCCCCCN2CCC(OC(=O)Nc3ccccc3-c3ccccc3)CC2)CC1 [Compound D] |  | 2 nM
